Assay results published in patent US8691761B2, “Somatostatin receptor 2 antagonists” (priority 2006, dated 2014).
Entries after “also recorded” stand apart in the source; their conditions may differ. Bridge positions count the residues as written; N and C are the ends. Square brackets hold non-standard residues; d marks the D form. Peptide text beside a SMILES is read from it. Phe(4-Cl) = N[C@@H](Cc1ccc(Cl)cc1)C(=O)O; 2Nal = N[C@@H](Cc1ccc2ccccc2c1)C(=O)O; NMeK = CN[C@@H](CCCCN)C(=O)O

Legend:
sst2 [1] = biological target: T1, sst2 (Homo sapiens, UniProt P30874); details: cited from earlier work
Target sequence in this assay (P30874 whole entry, species assumed): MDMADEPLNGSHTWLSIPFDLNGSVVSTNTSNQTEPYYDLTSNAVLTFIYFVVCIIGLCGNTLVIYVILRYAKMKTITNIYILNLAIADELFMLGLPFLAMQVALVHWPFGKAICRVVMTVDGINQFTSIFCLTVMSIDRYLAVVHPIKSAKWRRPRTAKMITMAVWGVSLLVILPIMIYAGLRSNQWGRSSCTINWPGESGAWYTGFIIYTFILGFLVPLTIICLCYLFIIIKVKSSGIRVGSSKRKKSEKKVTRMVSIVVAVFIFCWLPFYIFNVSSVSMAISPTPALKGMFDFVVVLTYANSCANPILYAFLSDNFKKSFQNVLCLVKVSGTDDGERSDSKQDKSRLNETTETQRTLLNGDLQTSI

hSSTR4 = biological target: T2, hSSTR4 (Homo sapiens, UniProt P31391); assay: Receptor autoradiography, displacement of 125I-[Leu8,D-Trp22,Tyr25]-SRIF-28 from membrane pellet sections; type: binding; details: Table 3; mean ± SEM when N ≧ 3; read-out: sst4 binding affinity (IC50)
T2 construct: expressed in transfected cells; host or cells: CHO-K1 or CCL39 cells
T2 sequence (P31391 whole entry): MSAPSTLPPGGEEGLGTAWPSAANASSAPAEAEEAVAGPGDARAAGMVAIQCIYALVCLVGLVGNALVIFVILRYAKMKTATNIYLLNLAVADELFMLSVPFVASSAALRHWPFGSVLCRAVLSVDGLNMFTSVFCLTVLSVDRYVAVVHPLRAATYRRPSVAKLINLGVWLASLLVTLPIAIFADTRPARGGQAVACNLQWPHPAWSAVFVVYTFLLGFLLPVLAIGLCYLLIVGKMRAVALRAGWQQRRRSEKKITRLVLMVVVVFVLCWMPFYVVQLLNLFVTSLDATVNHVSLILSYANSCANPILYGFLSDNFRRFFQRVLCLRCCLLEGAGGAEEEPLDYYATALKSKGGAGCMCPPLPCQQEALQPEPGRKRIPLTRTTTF

hSSTR1 = biological target: T3, hSSTR1 (Homo sapiens, UniProt P30872); assay: as above; type: binding; details: Table 3; mean ± SEM when N ≧ 3; read-out: sst1 binding affinity (IC50)
T3 construct: expressed in transfected cells; host or cells: CHO-K1 or CCL39 cells
T3 sequence (P30872 whole entry): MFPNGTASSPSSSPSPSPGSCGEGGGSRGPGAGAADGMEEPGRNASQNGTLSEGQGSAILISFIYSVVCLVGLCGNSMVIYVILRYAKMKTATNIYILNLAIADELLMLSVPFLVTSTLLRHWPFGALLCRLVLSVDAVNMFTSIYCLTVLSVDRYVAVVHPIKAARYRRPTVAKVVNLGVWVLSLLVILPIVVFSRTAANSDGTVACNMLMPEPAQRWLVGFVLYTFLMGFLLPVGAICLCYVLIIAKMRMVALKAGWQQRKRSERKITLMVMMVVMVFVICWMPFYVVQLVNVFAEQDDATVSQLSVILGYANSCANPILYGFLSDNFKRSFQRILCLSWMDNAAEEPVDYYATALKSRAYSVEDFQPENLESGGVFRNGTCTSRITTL

hSSTR3 = biological target: T4, hSSTR3 (Homo sapiens, UniProt P32745); assay: as above; type: binding; details: Table 3; mean ± SEM when N ≧ 3; read-out: sst3 binding affinity (IC50)
T4 construct: expressed in transfected cells; host or cells: CHO-K1 or CCL39 cells
T4 sequence (P32745 whole entry): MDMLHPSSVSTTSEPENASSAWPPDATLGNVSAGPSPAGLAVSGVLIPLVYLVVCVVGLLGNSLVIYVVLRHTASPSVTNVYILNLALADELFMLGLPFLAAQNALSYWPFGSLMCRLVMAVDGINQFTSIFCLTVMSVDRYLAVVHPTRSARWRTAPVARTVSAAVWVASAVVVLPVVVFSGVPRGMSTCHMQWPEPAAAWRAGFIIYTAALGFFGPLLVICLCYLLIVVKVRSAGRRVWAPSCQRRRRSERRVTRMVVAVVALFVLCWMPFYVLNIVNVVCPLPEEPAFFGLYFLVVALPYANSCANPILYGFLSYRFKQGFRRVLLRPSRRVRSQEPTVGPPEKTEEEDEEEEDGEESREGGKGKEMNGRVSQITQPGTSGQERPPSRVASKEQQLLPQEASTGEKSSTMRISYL

hSSTR2 = biological target: T5, hSSTR2 (Homo sapiens, UniProt P30874); assay: as above; type: binding; details: Table 3; mean ± SEM when N ≧ 3; read-out: sst2 binding affinity (IC50)
T5 construct: expressed in transfected cells; host or cells: CHO-K1 or CCL39 cells
T5 sequence (P30874 whole entry): as the sequence (P30874 whole entry, species assumed) above

human sst2A receptor = biological target: T6, human sst2A receptor (Homo sapiens, UniProt P30874); assay: Immunofluorescence-based sst2 internalization assay in HEK-sst2 cells; type: cell-based; details: n ≧ 2
T6 construct: expressed in transfected cells; host or cells: HEK293 (HEK-sst2)
T6 sequence (P30874 whole entry): as the sequence (P30874 whole entry, species assumed) above
How it was run: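 HEK-sst2 cells treated with vehicle, 100 nM [Tyr^3]-octreotide, octreotide plus 100-fold excess test analogue, or test analogue alone at 10 μM. Receptor internalization visualized by immunofluorescence microscopy with sst2-specific antibody R2-88.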

sst2 [2] = biological target: T1, sst2; assay: Calcium release assay in HEK-sst2 cells (Fluo-4NW); type: cell-based; set-up: expressed in transfected cells; host or cells: HEK293 (HEK-sst2); details: n ≧ 2
Target sequence in this assay (P30874 whole entry): as the sequence (P30874 whole entry, species assumed) above

sst3 = sst3 (Homo sapiens, UniProt P32745); details: literature value compared with own IC50; read-out: reported value at sst3 (Hocart et al.); cited from earlier work
Chain of sst3 (P32745 whole entry, species assumed): as the sequence (P32745 whole entry) above

[3] = biological target: T7-epitope-tagged human sst2 (Homo sapiens, UniProt P30874); assay: Quantitative assay for sst2 internalization (ELISA) in HEK-sst2 cells; type: cell-based; details: FIG. 3
Chain of T7-epitope-tagged human sst2 (P30874 whole entry): as the sequence (P30874 whole entry, species assumed) above
Method: Quantitative assay for sst2 internalization (ELISA) Receptor internalization was determined using an ELISA to quantitate T7-epitope-tagged human sst2 on the cell surface. HEK-sst2 cells were seeded on poly-D-lysine (20 μg/mL) coated 24-well plates (250,000 cells per well) in growth medium and cultured for 1 day at 37° C. and 5% CO2. […] After washing with DMEM-LH to remove unbound antibody, cells were incubated for 30 min at 37° C. and 5% CO2 either without or with the ligands added at the concentrations indicated. Incubations were terminated by placing the plates in an ice bath. Cells were then washed twice with cold PBS and fixed for 10 min at room temperature with 3% paraformaldehyde in PBS (pH 7.4). […] After 3 additional washes with PBS, antibody binding was measured by adding 0.3 mL substrate mix for horseradish peroxidase (ABTS). The OD405 was measured after an approximately 30 min incubation at room temperature. The amount of sst2 remaining at the cell surface after ligand treatment was calculated as the absorbance measured in treated cells expressed as a percentage of the absorbance in untreated cells. Nonspecific absorbance was determined in experiments in which HEK293-sst2 cells were incubated without the anti-T7 antibody. […]

HEK-sst2 tumors = assay: In vivo biodistribution of radiolabeled peptides in nude mice bearing HEK-sst2 tumors; details: mouse, in vivo
Method: The following protocol was used to determine biodistribution
Confirmation that the transfected tumors were indeed expressing solely sst2 was obtained in resected tumor samples tested in vitro with somatostatin receptor autoradiography using subtype selective ligands.
The biodistribution of was studied at 4 h or 24 h after injection. The organs of interest were collected, blotted dry, weighed, their radioactivity measured and the percentage of injected activity per gram (% IA/g) calculated.

## C[C@@H](O)[C@@H]1NC(=O)[C@H](CCCCN)N(C)C(=O)[C@@H](Cc2c[nH]c3ccccc23)NC(=O)[C@H](Cc2ccc(O)cc2)NC(=O)[C@H](NC(=O)[C@@H](N)Cc2ccc(Cl)cc2)CSSC[C@@H](C(=O)N[C@@H](Cc2ccc3ccccc3c2)C(N)=O)NC1=O [compound 8, H2N-Cpa-c[DCys-Tyr-DTrp-NMeLys-Thr-Cys]-2Nal-NH2, reference compound] (H-[Phe(4-Cl)][dC]Y[dW][NMeK]TC[2Nal]-NH2; disulfide 2-7)
sst2 [1]
  increase of binding affinity at sst2 versus 7 in Hocart et al. assay: 5 fold
hSSTR4
  IC50: 715 ± 137 nM
hSSTR1
  IC50: > 1000 nM
hSSTR3
  IC50: 61 ± 14 nM
hSSTR2
  IC50: 10 ± 3.5 nM
Human sst2A receptor
  sst2-internalization tested in vitro in HEK-sst2 cells (function): Antagonist
sst2 [2]
  Calcium release tested in vitro in HEK-sst2 cells (function): Antagonist

## C[C@@H](O)[C@@H]1NC(=O)[C@H](CCCCN)NC(=O)[C@@H](Cc2c[nH]c3ccccc23)NC(=O)[C@H](Cc2ccc(O)cc2)NC(=O)[C@H](NC(=O)[C@@H](N)Cc2ccc(Cl)cc2)CSSC[C@@H](C(=O)N[C@@H](Cc2ccc3ccccc3c2)C(N)=O)NC1=O [compound 7, H2N-Cpa-c[DCys-Tyr-DTrp-Lys-Thr-Cys]-2Nal-NH2, reference compound] (H-[Phe(4-Cl)][dC]Y[dW]KTC[2Nal]-NH2; disulfide 2-7)
sst2 [1]; literature value compared with own IC50, read-out: reported value at sst2 (Hocart et al.)
  IC50: 26 nM
Human sst2A receptor
  sst2-internalization tested in vitro in HEK-sst2 cells (function): Antagonist
sst3
  IC50: 93 nM
sst2 [2]
  Calcium release tested in vitro in HEK-sst2 cells (function): Antagonist

## C[C@@H](O)[C@@H]1NC(=O)[C@H](CCCCN)NC(=O)[C@@H](Cc2c[nH]c3ccccc23)NC(=O)[C@H](Cc2ccc(O)c(I)c2)NC(=O)[C@H](NC(=O)[C@H](Cc2ccc([N+](=O)[O-])cc2)NC(=O)CN2CCN(CC(=O)O)CCN(CC(=O)O)CCN(CC(=O)O)CC2)CSSC[C@@H](C(=O)N[C@H](Cc2ccc(O)cc2)C(N)=O)NC1=O [Peptide No. 32, DOTA-pNO2Phe-c[DCys-ITyr-DTrp-Lys-Thr-Cys]-DTyr-NH2]
[3]
  function in the ELISA internalization assay: antagonistic properties
HEK-sst2 tumors
  tumor to kidney ratio (in words): excellent tumor to kidney ratio
Human sst2A receptor
  sst2-internalization tested in vitro in HEK-sst2 cells (function): antagonistic property; also recorded: Antagonist
sst2 [2]
  Calcium release tested in vitro in HEK-sst2 cells (function): Antagonist
